Experimental data from paper PMC7598702, “Phenolome of Asian Agrimony Tea (Agrimonia asiatica Juz., Rosaceae): LC-MS Profile, α-Glucosidase Inhibitory Potential and Stability” (Foods, 2020).

Assays:
α-glucosidase [1] = assay: HPLC activity-based profiling (microfractionation) of A. asiatica extract for α-glucosidase inhibition; type: biochemical, Saccharomyces cerevisiae; conditions: microfractions of A. asiatica extract, main inhibition window 11.5 to 13.5 min
Protocol: Aliquots (100 µL) of A. asiatica extract solution (10 mg/mL) were separated under analytical HPLC conditions as described in Section 2.4. The collection of eluates (40 µL) performed every 30 s in 96-well plates. After drying and redissolving the eluates in 10 µL of PBS the eluates were investigated as described earlier. α-Glucosidase was dissolved in PBS which contained BSA (0.2%) up to 0.5 U/mL concentration and then added 125 µL of PBS and 60 µL p-nitrophenyl-α-D-glucopyranoside (5 mM). The samples were incubated at 37 °C for 5 min and then 60 µL α-glucosidase (0.4 U/mL) was added. The samples were incubated at 37 °C for 15 min. Then 50 µL sodium carbonate (200 mM) was added. Absorbance (A400) was determined at 400 nm. The rates (1-A400) were carried out to create HPLC-based bioactivity profiles of A. asiatica extract.
To characterize the chemical profile of A. asiatica herb extract microcolumn reversed-phase HPLC-PDA procedure was applied (Figure 3a). […] For identification, the components of interest of A. asiatica herb with high α-glucosidase inhibitory activity, the extract was subjected by HPLC activity-based profiling. To detect of anti-α-glucosidase inhibitors in A. asiatica herb extract, the procedure of small-scale semi-preparative microfractionation by reversed-phase HPLC was applied. […] Subsequently, microfractions were dried and redissolved in a buffer solution. Thereafter, an enzyme solution was added to estimate the inhibition of α-glucosidase by the eluate.

[2] = Stability of A. asiatica phenolics in water media (infusions and decoctions, HPLC-MS quantification); type: physicochemical; conditions: boiling infusion (100 °C) and decoctions
Protocol: Quantification of compounds 1–60 were carried out using HPLC-MS data (full scan MS, peak area). The quantifications were realized under the conditions specified in Section 2.4. For the preparation of the stock solutions, 44 reference compounds (2, 6–16, 19, 23, 26, 28, 31–51, 53–56, 58–60) were carefully weighed (10 mg), then separately dissolved in methanol in a W flask (10 mL). An external standard calibration curve was constructed with the use of six data points (100, 50, 25, 10, 5, and 1 µg/mL). The calibration curves were constructed by plotting the MS peak area vs. concentration levels. Correlation coefficients, r^2; standard deviation, SYX; limits of detection, LOD; limits of quantification, LOQ; linear ranges were computed applying early reference. All analyses were performed in triplicate, data obtained were expressed as mean value ± standard deviation (SD). […] The weight of the tube was reduced to an initial sign after cooling. For analysis, the extract obtained was filtered through 0.22 μm polytetrafluoroethylene (PTFE) syringe filter and then injected into the HPLC system. […]

α-glucosidase [3] = system: α-glucosidase; parameters: method as in PMID 28045450; conditions: agrimoniin from Comarum palustre herb extract; cited from earlier work

content change on heat treatment in water [2] | Compound | α-glucosidase inhibition of HPLC peaks (α-glucosidase [1]) | also measured
– | O=c1oc2c(O)c(O)cc3c(=O)oc4c(O)c(O)cc1c4c23 [Compound 38, Ellagic acid] | less significant results of inhibition | –
decreased to trace amounts | O=C(O)CC(=O)OC[C@H]1O[C@@H](Oc2c(-c3ccc(O)c(O)c3)oc3cc(O)cc(O)c3c2=O)[C@H](O)[C@@H](O)[C@@H]1O [Compound 45, Quercetin-3-O-(6″-O-malonyl)-glucoside] | – | –
– | O=c1c(O[C@@H]2O[C@H](CO)[C@@H](O)[C@H](O)[C@H]2O)c(-c2ccc(O)c(O)c2)oc2cc(O)cc(O)c12 [Compound 41, Quercetin-3-O-glucoside] | – | α-glucosidase inhibition of HPLC peaks (α-glucosidase [1]; listed as isoquercitrin): less significant results of inhibition
– | O=C(O[C@H]1O[C@@H]2COC(=O)c3cc(O)c(O)c(O)c3-c3c(cc(O)c(O)c3O)C(=O)O[C@H]2[C@@H]2OC(=O)c3cc(O)c(O)c(O)c3-c3c(cc(O)c(O)c3O)C(=O)O[C@@H]12)c1cc(O)c(O)c(Oc2c(C(=O)O[C@H]3O[C@@H]4COC(=O)c5cc(O)c(O)c(O)c5-c5c(cc(O)c(O)c5O)C(=O)O[C@H]4[C@@H]4OC(=O)c5cc(O)c(O)c(O)c5-c5c(cc(O)c(O)c5O)C(=O)O[C@@H]34)cc(O)c(O)c2O)c1 [Compound 36, Agrimoniin] | most pronounced inhibition | inhibitory activity relative to α-glucosidase (α-glucosidase [3]): high inhibitory activity
decreased to trace amounts | O=C(O)CC(=O)OCC1OC(Oc2cc(-c3cc(=O)c4c(O)cc(O)cc4o3)ccc2O)C(O)C(O)C1O (stereo not drawn) [Compound 53, Luteolin-3-O-(6″-O-malonyl)-glucoside] | – | –
